Earlier results in patent publication US20100137333A1, “ANTIFUNGAL COMPOSITION AND METHODS FOR USING” (priority 2006, published 2010).

Settings: in vivo

Substance	dermal toxicity
Poly(vinylpyrrolidone/1-hexadecene) [PVPH]	no demonstrable dermal toxicity
poly(vinylpyrrolidone/1-eicosene) [PVPE]	no demonstrable dermal toxicity
